{
  "source": "paper PMC7450941",
  "about": "“Establishing a sensitive fluorescence-based quantification method for cyclic nucleotides” (BMC Biotechnology, 2020)",
  "biological_target": "T1, Epac1-camps-His6 (Homo sapiens, UniProt O95398)",
  "T1 construct": "made in house; host or cells: E. coli BL21(DE3)-CodonPlus-RIL / BL21(DE3)-pLysS, pET11a",
  "T1 sequence (O95398 199-357 limits assumed)": "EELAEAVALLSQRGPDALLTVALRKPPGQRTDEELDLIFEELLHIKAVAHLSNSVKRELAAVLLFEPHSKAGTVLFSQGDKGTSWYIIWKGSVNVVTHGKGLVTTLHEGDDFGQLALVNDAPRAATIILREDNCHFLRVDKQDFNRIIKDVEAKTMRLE",
  "test": "cell-free FRET assay with purified Epac1-camps-His6 in 96 multi-well plates (EYFP/ECFP ratio R/R0)",
  "assay_type": "biochemical",
  "settings": "96 MWP, plate reader",
  "method": "To assess the functionality of the purified Epac1-camps-His6 protein, the protein was diluted to 0.7 μM and 90 μl of this solution was added to each well of a 96 multi well plate (MWP). Fluorescence emission in each well was measured in a plate reader. Excitation was at 430 nm and emission was recorded at 475 nm (ECFP) and 530 nm (EYFP). […] The final volume in each well was 100 μl, and final concentrations of cyclic nucleotides ranged from 10^− 9 - 10^− 4 M. Incubation of the sensor protein with its ligands was for 30 min. at room temperature. […] Normalized data were plotted against cyclic nucleotide concentrations and EC50 values were calculated. […] Mean values with standard deviations were obtained from four-fold determinations for each cyclic nucleotide.\nPurified Epac1-camps-His6 protein was diluted to a concentration of 0.7 μM in IS buffer and 90 μl of the sample was added to each well of a 96 multi well plate. Excitation was at 430 nm and emission was recorded at 475 nm (ECFP) and 530 nm (EYFP). […] The final volume was 100 μl and final concentrations of cyclic nucleotides ranged from 10^− 9 - 10^− 4 M. The EYFP/ECFP ratio (R) for each well was calculated and normalized to the ratio of the basal fluorescence in the absence of cyclic nucleotides (R0). […] EC50 values were calculated with a four-parameter nonlinear regression using GraphPad Prism v5.04 […]",
  "data": [
    {"molecule": "Nc1nc2c(ncn2[C@@H]2O[C@@H]3COP(=O)(O)O[C@H]3[C@H]2O)c(=O)[nH]1", "note": "[cGMP, cyclic guanosine 3′,5′-monophosphate]", "values": [
      {"measurement": "EC50", "value": 7.8, "unit": "µM"}
    ]}
  ]
}
